Laboratory results published in the supplement of paper PMC4862054.

How the values were obtained:
Details in all cases: incubation time: 72 h
BT-474 = assay: normalised viability (% of control), CellTiter-Blue; higher = more viable cells (about 100 = DMSO control)
Experimental: (§1)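 DSRT, CellTiter-Blue viability, 72 h incubation. Signal is normalised to DMSO and benzethonium chloride controls. Value is the normalised response at dose 3.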

BT-549 [1] = assay: as above
Experimental: as §1

CAL-120 [2] = assay: as above
Experimental: as §1

CAL-148 = assay: as above
Experimental: as §1

CAL-51 [3] = assay: as above
Experimental: as §1

CAL-85-1 = assay: as above
Experimental: as §1

DU-4475 [4] = assay: as above
Experimental: as §1

HCC1143 = assay: as above
Experimental: as §1

HCC1599 = assay: as above
Experimental: as §1

HCC1937 [5] = assay: as above
Experimental: as §1

HDQ-P1 = assay: as above
Experimental: as §1

Hs578T = assay: as above
Experimental: as §1

MDA-MB-231 = assay: as above
Experimental: as §1

MDA-MB-436 = assay: as above
Experimental: as §1

MDA-MB-453 = assay: as above
Experimental: as §1

MDA-MB-468 [6] = assay: as above
Experimental: as §1

MFM-223 = assay: as above
Experimental: as §1

SK-BR-3 = assay: as above
Experimental: as §1

BT-549 [7] = assay: drug sensitivity score (DSS), CellTox Green (DSS (AUC-based score)); higher = stronger drug effect (viability inhibition or cytotoxicity); extreme values may be limits of the assay
In short: (§2)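 A drug sensitivity score was derived from the area under each fitted dose-response curve. Breast cancer cells (20 µl suspension) were seeded onto compound in 384-well plates, using 5 concentrations 10-fold apart over a compound-specific 10,000-fold range, and incubated 72 h. Readouts were CellTox Green fluorescence and then CellTiter-Glo luminescence, with every plate normalised to 0.1 % DMSO and a positive kill control.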

CAL-120 [8] = assay: as above
In short: as §2

CAL-51 [9] = assay: as above
In short: as §2

DU-4475 [10] = assay: as above
In short: as §2

HCC1937 [11] = assay: as above
In short: as §2

MDA-MB-468 [12] = assay: as above
In short: as §2

| SMILES | drug sensitivity score (BT-549 [7]) | drug sensitivity score (CAL-120 [8]) | drug sensitivity score (CAL-51 [9]) | drug sensitivity score (DU-4475 [10]) | drug sensitivity score (HCC1937 [11]) | drug sensitivity score (MDA-MB-468 [12]) | normalised viability (BT-474; 100 nM) [%] | normalised viability (BT-549 [1]; 100 nM) [%] | normalised viability (CAL-120 [2]; 100 nM) [%] | normalised viability (CAL-148; 10 nM) [%] | normalised viability (CAL-51 [3]; 10 nM) [%] | normalised viability (CAL-85-1; 10 nM) [%] | normalised viability (DU-4475 [4]; 10 nM) [%] | normalised viability (HCC1143; 100 nM) [%] | normalised viability (HCC1599; 100 nM) [%] | normalised viability (HCC1937 [5]; 100 nM) [%] | normalised viability (HDQ-P1; 10 nM) [%] | normalised viability (Hs578T; 100 nM) [%] | normalised viability (MDA-MB-231; 100 nM) [%] | normalised viability (MDA-MB-436; 100 nM) [%] | other results |
| --- | --- | --- | --- | --- | --- | --- | --- | --- | --- | --- | --- | --- | --- | --- | --- | --- | --- | --- | --- | --- | --- |
| CO[C@H]1/C=C\C=C(/C)C(=O)NC2=CC(=O)C(NCCN(C)C)=C(C[C@@H](C)C[C@H](OC)[C@H](O)[C@@H](C)/C=C(\C)[C@@H]1OC(N)=O)C2=O [Alvespimycin] | 0 | 0.117 | 6.02 | 4.5 | 1.6 | 1.6 |  |  |  |  |  |  |  |  |  |  |  |  |  |  | normalised viability (BT-474; 10 nM): 92.1%; normalised viability (BT-549 [1]; 10 nM): 43.2%; normalised viability (CAL-120 [2]; 10 nM): 86.3%; normalised viability (CAL-148; 1 nM): 109%; normalised viability (CAL-51 [3]; 1 nM): 90%; normalised viability (CAL-85-1; 1 nM): 97.2%; normalised viability (DU-4475 [4]; 1 nM): 105%; normalised viability (HCC1143; 10 nM): 86.1%; normalised viability (HCC1599; 10 nM): 77%; normalised viability (HCC1937 [5]; 10 nM): 55.9%; normalised viability (HDQ-P1; 1 nM): 112%; normalised viability (Hs578T; 10 nM): 51.5%; normalised viability (MDA-MB-231; 10 nM): 97.2%; normalised viability (MDA-MB-436; 10 nM): 74.9%; normalised viability (MDA-MB-453; 1 nM): 93.4%; normalised viability (MDA-MB-468 [6]; 10 nM): 102%; normalised viability (MFM-223; 10 nM): 58.3%; normalised viability (SK-BR-3; 10 nM): 51.5% |
| Clc1ccc(Nc2nnc(Cc3ccncc3)c3ccccc23)cc1 [Vatalanib] | 0 | 0 | 0 | 0 | 0 | 0 | 100 | 81.4 | 79.7 | 84.4 | 101 | 97.3 | 97.9 | 78.9 | 109 | 112 | 105 | 100 | 89.1 | 119 | normalised viability (MDA-MB-453; 10 nM): 111%; normalised viability (MDA-MB-468 [6]; 100 nM): 100%; normalised viability (MFM-223; 100 nM): 97.7%; normalised viability (SK-BR-3; 100 nM): 66.5% |
| C[C@@H](Oc1cc(-c2cnn(C3CCNCC3)c2)cnc1N)c1c(Cl)ccc(F)c1Cl [Crizotinib] | 0 | 0 | 0 | 0 | 0 | 0 | 92.7 | 95.2 | 96.8 | 105 | 107 | 93.8 | 91.3 | 95.8 | 99.6 | 102 | 85 | 64.8 | 84.7 | 84.8 | normalised viability (MDA-MB-453; 10 nM): 94.2%; normalised viability (MDA-MB-468 [6]; 100 nM): 97.7%; normalised viability (MFM-223; 100 nM): 83.4%; normalised viability (SK-BR-3; 100 nM): 59.1% |
| CNCc1ccc(-c2[nH]c3cc(F)cc4c3c2CCNC4=O)cc1 [Rucaparib] | 0 | 0 | 0 | 0 | 0 | 10.6 | 100 | 112 | 93.3 | 83.4 | 114 | 87.6 | 106 | 110 | 114 | 85.9 | 109 | 75.2 | 98 | 129 | normalised viability (MDA-MB-453; 10 nM): 98.8%; normalised viability (MDA-MB-468 [6]; 100 nM): 110%; normalised viability (MFM-223; 100 nM): 109%; normalised viability (SK-BR-3; 100 nM): 76.4% |
| Oc1nc(-c2ccc(C(F)(F)F)cc2)nc2c1CSCC2 [XAV-939] | 0 | 0 | 0 | 0 | 0 | 0 | 107 | 104 | 97.2 | 92.6 | 98.8 | 96.3 | 111 | 77.6 | 116 | 101 | 104 | 88.3 | 89.1 | 128 | normalised viability (MDA-MB-453; 10 nM): 101%; normalised viability (MDA-MB-468 [6]; 100 nM): 107%; normalised viability (MFM-223; 100 nM): 96.5%; normalised viability (SK-BR-3; 100 nM): 112% |
| COc1cc2nccc(Oc3ccc(NC(=O)C4(C(=O)Nc5ccc(F)cc5)CC4)cc3)c2cc1OC [Cabozantinib] | 0 | 0 | 0 | 0 | 0 | 0 |  |  |  |  |  |  |  |  |  |  |  |  |  |  | normalised viability (BT-474; 10 nM): 122%; normalised viability (BT-549 [1]; 10 nM): 104%; normalised viability (CAL-120 [2]; 10 nM): 80.7%; normalised viability (CAL-148; 1 nM): 98.6%; normalised viability (CAL-51 [3]; 1 nM): 96.9%; normalised viability (CAL-85-1; 1 nM): 91.8%; normalised viability (DU-4475 [4]; 1 nM): 89.4%; normalised viability (HCC1143; 10 nM): 81.3%; normalised viability (HCC1599; 10 nM): 82.3%; normalised viability (HCC1937 [5]; 10 nM): 95.4%; normalised viability (HDQ-P1; 1 nM): 99.5%; normalised viability (Hs578T; 10 nM): 91.1%; normalised viability (MDA-MB-231; 10 nM): 100%; normalised viability (MDA-MB-436; 10 nM): 108%; normalised viability (MDA-MB-453; 1 nM): 98.5%; normalised viability (MDA-MB-468 [6]; 10 nM): 123%; normalised viability (MFM-223; 10 nM): 93.5%; normalised viability (SK-BR-3; 10 nM): 76.2% |
| CCC1(c2ccc(N)cc2)CCC(=O)NC1=O (configuration not stated) [Aminoglutethimide] | 0 | 0 | 0 | 0 | 0 | 0 | 112 | 73.2 | 121 | 99.1 | 93.5 | 101 | 104 | 113 | 104 | 91.3 | 93.5 | 80.6 | 93.7 | 90.9 | normalised viability (MDA-MB-453; 10 nM): 86.3%; normalised viability (MDA-MB-468 [6]; 100 nM): 102%; normalised viability (MFM-223; 100 nM): 97%; normalised viability (SK-BR-3; 100 nM): 105% |
| CN(N=O)C(=O)N[C@@H](C=O)[C@@H](O)[C@H](O)[C@H](O)CO [Streptozocin] | 0 | 0 | 0 | 0 | 0 | 3.14 | 104 | 104 | 105 | 99.6 | 109 | 105 | 99.1 | 101 | 101 | 90.7 | 106 | 102 | 101 | 101 | normalised viability (MDA-MB-453; 10 nM): 112%; normalised viability (MDA-MB-468 [6]; 100 nM): 106%; normalised viability (MFM-223; 100 nM): 90.6%; normalised viability (SK-BR-3; 100 nM): 95.7% |
| O=C1CCC(N2C(=O)c3ccccc3C2=O)C(=O)N1 (configuration not stated) [Thalidomide] | 0 | 0 | 0 | 0 | 0 | 0 | 109 | 88 | 105 | 107 | 90.7 | 100 | 91.3 | 112 | 108 | 90.2 | 101 | 91.9 | 106 | 105 | normalised viability (MDA-MB-453; 10 nM): 98.3%; normalised viability (MDA-MB-468 [6]; 100 nM): 98.2%; normalised viability (MFM-223; 100 nM): 90.7%; normalised viability (SK-BR-3; 100 nM): 111% |
| CC1(C)NC(=O)N(c2ccc([N+](=O)[O-])c(C(F)(F)F)c2)C1=O [Nilutamide] | 0 | 0 | 0 | 0 | 0 | 0 | 119 | 99.6 | 99.4 | 95 | 101 | 105 | 100 | 96.2 | 95.5 | 99.7 | 149 | 111 | 106 | 96.6 | normalised viability (MDA-MB-453; 10 nM): 112%; normalised viability (MDA-MB-468 [6]; 100 nM): 94.2%; normalised viability (MFM-223; 100 nM): 92.4%; normalised viability (SK-BR-3; 100 nM): 95.4% |
| Cc1ccc(-n2nc(C(C)(C)C)cc2NC(=O)Nc2ccc(OCCN3CCOCC3)c3ccccc23)cc1 [Doramapimod] | 0 | 0 | 0 | 0 | 0 | 0 | 93.8 | 98.7 | 87.3 | 95.3 | 110 | 91.1 | 106 | 100 | 90.9 | 94.7 | 93.8 | 78 | 92.5 | 86 | normalised viability (MDA-MB-453; 10 nM): 106%; normalised viability (MDA-MB-468 [6]; 100 nM): 98%; normalised viability (MFM-223; 100 nM): 109%; normalised viability (SK-BR-3; 100 nM): 69.7% |
| CN(C)/N=N/c1[nH]cnc1C(N)=O [Dacarbazine] | 0 | 0 | 0 | 0 | 3.14 | 0 | 117 | 99.4 | 77.9 | 96.4 | 85.9 | 91.8 | 98.4 | 89.2 | 78.8 | 106 | 111 | 106 | 93.1 | 86.8 | normalised viability (MDA-MB-453; 10 nM): 99.2%; normalised viability (MDA-MB-468 [6]; 100 nM): 112%; normalised viability (MFM-223; 100 nM): 88.8%; normalised viability (SK-BR-3; 100 nM): 86.9% |
| Cn1c(CCCC(=O)O)nc2cc(N(CCCl)CCCl)ccc21 [Bendamustine] | 0 | 0 | 0 | 0 | 0 | 4.02 | 108 | 109 | 88.2 | 108 | 106 | 102 | 120 | 105 | 105 | 97.4 | 112 | 83.7 | 93.2 | 83.4 | normalised viability (MDA-MB-453; 10 nM): 112%; normalised viability (MDA-MB-468 [6]; 100 nM): 96.3%; normalised viability (MFM-223; 100 nM): 102%; normalised viability (SK-BR-3; 100 nM): 67.7% |
